According to the NIST ThermoML archive (doi:10.1016/j.fluid.2012.10.024):

Columns and labels:
[1] = mn = molality of the nth substance listed, in mol/kg; settings: 101 kPa, Liquid, Vibrating tube method
[2] = 101.33 kPa, Liquid, Vibrating tube method

OCC1CCCCN1 (stereo unspecified) [2-(hydroxymethyl)piperidine] + O
mass density [kg/m3], [1]
Settings | m1 = 0.0476 | m1 = 0.0676 | m1 = 0.0864 | m1 = 0.1214 | m1 = 0.1524 | m1 = 0.1766 | m1 = 0.2009 | m1 = 0.2264 | m1 = 0.2609
293.15 K | 998.6 | 998.75 | 998.87 | 999.15 | 999.37 | 999.52 | 999.71 | 999.87 | 1000.11
298.15 K | 997.46 | 997.6 | 997.72 | 997.99 | 998.2 | 998.34 | 998.53 | 998.68 | 998.91
303.15 K | 996.06 | 996.19 | 996.31 | 996.57 | 996.77 | 996.91 | 997.09 | 997.24 | 997.46
308.15 K | 994.44 | 994.56 | 994.68 | 994.93 | 995.13 | 995.26 | 995.43 | 995.58 | 995.79
313.15 K | 992.59 | 992.74 | 992.85 | 993.1 | 993.28 | 993.41 | 993.58 | 993.72 | 993.92
318.15 K | 990.6 | 990.72 | 990.83 | 991.07 | 991.25 | 991.37 | 991.53 | 991.66 | 991.86

OCC1CCCNC1 (stereo unspecified) [3-(hydroxymethyl)piperidine] + O
mass density [kg/m3], [1]
Settings | m1 = 0.0562 | m1 = 0.0841 | m1 = 0.1205 | m1 = 0.1576 | m1 = 0.188 | m1 = 0.2257 | m1 = 0.2728 | m1 = 0.3059 | m1 = 0.3481
293.15 K | 999.04 | 999.09 | 999.36 | 999.67 | 999.94 | 1000.2 | 1000.48 | 1000.72 | 1000.95
298.15 K | 997.9 | 997.94 | 998.2 | 998.52 | 998.77 | 999.02 | 999.285 | 999.52 | 999.74
303.15 K | 996.5 | 996.53 | 996.79 | 997.1 | 997.34 | 997.58 | 997.835 | 998.06 | 998.27
308.15 K | 994.87 | 994.9 | 995.16 | 995.46 | 995.7 | 995.93 | 996.165 | 996.39 | 996.59
313.15 K | 993.05 | 993.07 | 993.32 | 993.61 | 993.85 | 994.07 | 994.3 | 994.52 | 994.71
318.15 K | 991.04 | 991.06 | 991.3 | 991.58 | 991.82 | 992.02 | 992.25 | 992.46 | 992.64

OCc1ccccn1 [α-picolyl alcohol]
[2]
Settings | mass density [kg/m3]
291.15 K | 1133.6
292.15 K | 1133.1
293.15 K | 1132.4
295.15 K | 1130.7
297.15 K | 1129.3
298.15 K | 1128.7
299.15 K | 1127.7
300.15 K | 1127.1
302.15 K | 1125.6
303.15 K | 1124.8
304.15 K | 1124
306.15 K | 1122.4
308.15 K | 1120.8
310.15 K | 1119.4
312.15 K | 1118.1
313.15 K | 1117.2
315.15 K | 1115.6
317.15 K | 1114.2
318.15 K | 1113.5

OCc1cccnc1 [β-picolyl alcohol]
[2]
Settings | mass density [kg/m3]
291.15 K | 1138.2
292.15 K | 1137.5
293.15 K | 1136.8
295.15 K | 1135.3
297.15 K | 1134.1
298.15 K | 1133.5
299.15 K | 1132.6
300.15 K | 1131.8
302.15 K | 1130.4
303.15 K | 1129.6
304.15 K | 1128.9
306.15 K | 1127.5
308.15 K | 1125.9
310.15 K | 1124.7
312.15 K | 1123.5
313.15 K | 1122.6
315.15 K | 1121.2
317.15 K | 1120
318.15 K | 1119.3
